In patent US8652536B2, “Skin clarifying complex, use of said complex, cosmestic or pharmaceutical composition comprising said complex and method for application thereof” (Natura Cosmeticos S.A., priority 2009, dated 2014):

Assays:
Type in all cases: cell-based
[1] = test system: line B16 melanocytes; assay: cells; conditions: for amount of melanin, % control: vs Control DMSO
Procedure: The assay methodology for the test lasted for five days in which, initially, line B16 melanocytes were plated on 12 well-conditioned containers, at a rate of 75,000 cells/plate.
On the three following days, 10mg (11 μl to linoleic acid) of component in the mixture were diluted in 100 μl of DMSO (dimethyl-sulfoxide) and, then, 9.9 ml of DMEM (culture medium) serum free were added so as to finally obtain 1 mg/ml of stock solution.
Sequentially, these solutions were incubated at 37° C. to assist solubilization of the samples. 10% bovine fetal serum (BFS) were added to the final dilution.
The actives are: gallic acid and linoleic acid.
On day five of the test the cells were divided into two steps of characterization: • Assessment of melanin in which the cells were first “washed” with PBS and then the cellular layer was dissolved into 500 μl of 3N NaOH and the suspension homogenized by pipetting. Two 200 μl portions of suspension were plated for optical reading at 400 nm.

[2] = test system: culture medium corresponding to the epidermis; assay: Melanin extracted from epidermis culture after 6 days of treatment; conditions: 6 days treatment, kojic acid 250 μM, A 25 μg/ml, B 75 μg/ml, A + B 25 + 75 μg/ml; for melanin extracted from epidermis, Mean (%): % of control; for Reduction (%) of melanin extracted from epidermis: vs control
Procedure: In another example samples containing an extract of Brazilian […] extract (A), linoleic acid (B) and a mixture of the active ingredients linoleic acid and gallic acid (A+B), respectively, were compared to a control and to kojic acid as far as the reduction of the amount of melanin is concerned. Each sample was applied to a culture medium corresponding to the epidermis and the concentrations of melanin were measured after 6 days of treatment.

[3] = test system: 3T3 cells; assay: Phototoxicity test, Neutral Red capture with and without UVA radiation; conditions: with and without non-cytotoxic dose of UVA
Procedure: Cytotoxicity assay allows determining the cytotoxic concentration of an active, when 3T3 cells are incubated therewith for 24 hours. Toxicity is determined as a function of cell viability, monitored by incubation of 3T3 cells with Neutral Red, and essential dye incorporated by living cells 24 hours 24 hours after contacting the active. Such assessment uses methodologies established by the National Institute of Health (NIH), USA, acknowledged internationally (Guidance NIH, 2001). The phototoxicity test is based on a comparison of the toxicity of an active in the presence and absence of a non-cytotoxic dose of UVA radiation. Phototoxicity is measured by Neutral Red capture by those cells surviving incubation with the active, according to a protocol already established and standardized by COLIPA and OECD (ZEBET/ECVAM/COLIPA, 1998; OECD, 2004). Phototoxicity/photoirritation is defined as the toxic response caused after a first exposure of the skin to certain products/actives and the subsequent exposure to sun light or induced by an irradiation of the skin after systemic administration of an active/product.

[4] = test system: 3T3 cells; assay: Cytotoxicity assay, Neutral Red, 24 hours incubation

Row | SMILES | melanin synthesis, % control ([1]; comparison with pharmaceutical and market actives at the same concentration, printed 0.01 mg/ml, α-MSH, FIG. 4) [% control] | melanin extracted from epidermis, Mean (%) [2] [%] | melanin extracted from epidermis, Mean [2] [µg/mL] | Reduction (%) of melanin extracted from epidermis [2] [%] | Reduction (%) of melanin extracted from epidermis ([2]; listed as kojic acid) | Phototoxicity [3] | inhibition at 25 µg/mL ([1]; Melanocyte, active alone at 0.025 mg/ml (its concentration in the mixture), read-out: inhibition of melanin by active alone) [%] | inhibition at 50 µg/mL ([1]; Melanocyte, active alone at 0.05 mg/ml (its concentration in the mixture), read-out: inhibition of melanin by active alone) [%] | inhibition at 75 µg/mL ([1]; Melanocyte, active alone at 0.075 mg/ml (its concentration in the mixture), read-out: inhibition of melanin by active alone) [%] | amount of melanin, % control ([1]; active alone at 0.025 mg/ml, α-MSH) [% control] | amount of melanin, % control ([1]; active alone at 0.05 mg/ml, α-MSH) [% control] | amount of melanin, % control ([1]; active alone at 0.075 mg/ml, α-MSH) [% control] | Cytotoxicity [4] | Reduction (%) of melanin extracted from epidermis ([2]; listed as B) [%] | Reduction (%) of melanin extracted from epidermis ([2]; listed as sample B) [%]
1 | OC[C@H]1O[C@@H](Oc2ccc(O)cc2)[C@H](O)[C@@H](O)[C@@H]1O [Arbutin, reference compound] | 82.5 |  |  |  |  |  |  |  |  |  |  |  |  |  | 
2 | O=c1cc(CO)occ1O [Kojic acid, reference compound] |  | 78.98 | 20.95 | 21.02 | about 21.02% |  |  |  |  |  |  |  |  |  | 
3 | CCCCC/C=C\C/C=C\CCCCCCCC(=O)O [linoleic acid] |  | 80.67 | 21.4 |  |  | Not phototoxic | 8.1 | 15.9 | 19 | 91.9 | 84.1 | 81.0 | Not cytotoxic | 19.33 | 19.3
